In patent publication US10781211B2, “Spirocycle compounds and methods of making and using same” (Lundbeck La Jolla Research Center, Inc., priority 2016, dated 2020):

Tests used:
Type in all cases: in vivo
Settings in all cases: 5 mg/kg oral gavage
MAGL = MAGL (Mus musculus (Mouse), UniProt O35678); assay: Mouse brain proteomes from inhibitor treated mice (oral gavage, sacrifice 4 h after administration, ABPP analysis)
Description: (§1) Preparation of Mouse Brain Proteomes from Inhibitor Treated Mice.
(§2) Inhibitors were administered to wild-type C57Bl/6J by oral gavage in a vehicle, e.g. PEG400/Ethanol/PBS (7/2/1). Each animal was sacrificed 4 h following administration and brain proteomes were prepared and analyzed according to previously established methods (See Niphakis, M. J., et al. (2011) ACS Chem. Neurosci. and Long, J. Z., et al. Nat. Chem. Biol. 5:37-44). Data from this assay is shown in Table 2 (% inhibition at 5 mg/kg).

FAAH = FAAH (Mus musculus (Mouse), UniProt O08914); assay: Mouse brain proteomes from inhibitor treated mice (oral gavage, sacrifice 4 h after administration, ABPP analysis), FAAH
Description: as §1, §2

ABHD6 = ABHD6 (Mus musculus (Mouse), UniProt Q8R2Y0); assay: Mouse brain proteomes from inhibitor treated mice (oral gavage, sacrifice 4 h after administration, ABPP analysis), ABHD6
Description: as §1, §2

ABHD6, sequence (Q8R2Y0 whole entry): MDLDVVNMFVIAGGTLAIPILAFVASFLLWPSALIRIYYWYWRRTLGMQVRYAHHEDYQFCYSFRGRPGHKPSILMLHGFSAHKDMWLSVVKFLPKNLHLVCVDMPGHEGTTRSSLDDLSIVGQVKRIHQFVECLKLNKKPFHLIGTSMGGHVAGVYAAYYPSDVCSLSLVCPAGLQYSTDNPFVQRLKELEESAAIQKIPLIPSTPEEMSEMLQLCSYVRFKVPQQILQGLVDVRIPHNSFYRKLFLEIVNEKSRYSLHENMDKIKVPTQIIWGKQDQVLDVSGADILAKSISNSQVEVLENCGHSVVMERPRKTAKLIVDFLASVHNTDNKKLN
MAGL, sequence (O35678 whole entry): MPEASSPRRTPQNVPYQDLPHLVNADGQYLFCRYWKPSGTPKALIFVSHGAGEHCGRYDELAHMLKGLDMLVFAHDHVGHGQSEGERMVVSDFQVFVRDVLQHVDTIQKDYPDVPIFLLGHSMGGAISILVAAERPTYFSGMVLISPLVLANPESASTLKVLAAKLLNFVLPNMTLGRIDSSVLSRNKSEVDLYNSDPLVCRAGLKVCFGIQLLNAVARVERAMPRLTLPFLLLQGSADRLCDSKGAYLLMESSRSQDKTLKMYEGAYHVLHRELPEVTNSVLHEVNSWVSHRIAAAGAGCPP
FAAH, sequence (O08914 whole entry): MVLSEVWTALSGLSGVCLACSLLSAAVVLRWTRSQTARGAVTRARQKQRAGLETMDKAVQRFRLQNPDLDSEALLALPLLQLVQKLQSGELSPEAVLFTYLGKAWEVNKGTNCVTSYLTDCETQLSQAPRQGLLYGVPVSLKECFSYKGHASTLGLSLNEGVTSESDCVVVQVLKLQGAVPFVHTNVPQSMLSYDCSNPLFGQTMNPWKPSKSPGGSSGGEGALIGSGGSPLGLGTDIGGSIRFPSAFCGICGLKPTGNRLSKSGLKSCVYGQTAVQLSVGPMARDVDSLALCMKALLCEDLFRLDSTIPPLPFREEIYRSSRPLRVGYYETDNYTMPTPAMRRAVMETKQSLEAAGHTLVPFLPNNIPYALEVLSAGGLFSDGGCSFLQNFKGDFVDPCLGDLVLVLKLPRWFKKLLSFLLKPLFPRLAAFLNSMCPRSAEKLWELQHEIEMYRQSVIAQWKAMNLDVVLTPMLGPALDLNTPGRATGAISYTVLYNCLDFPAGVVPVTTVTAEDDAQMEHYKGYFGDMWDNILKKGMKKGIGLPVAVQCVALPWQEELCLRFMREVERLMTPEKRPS

Row | SMILES | MAGL % Inh 5 mg/kg (mouse) (MAGL) | FAAH % Inh 5 mg/kg (mouse) (FAAH) | ABHD6 % Inh 5 mg/kg (mouse) (ABHD6)
1 | Cc1ccc(CN2CCCC23CCN(C(=O)OC(C(F)(F)F)C(F)(F)F)CC3)cc1C(F)(F)F [Example 180, 1,1,1,3,3,3-Hexafluoropropan-2-yl 1-(4-methyl-3-(trifluoromethyl)benzyl)-1,8-diazaspiro[4.5]decane-8-carboxylate] | ### (### is ≥ 75%) |  | 
2 | COc1ccc(F)cc1CN1CCCC12CCN(C(=O)OC(C(F)(F)F)C(F)(F)F)CC2 [Example 8, 1,1,1,3,3,3-Hexafluoropropan-2-yl 1-(5-fluoro-2-methoxybenzyl)-1,8-diazaspiro[4.5]decane-8-carboxylate] | ### (### is ≥ 75%) |  | 
3 | O=C(OC(C(F)(F)F)C(F)(F)F)N1CCC2(CCCN2Cc2ccc(Cl)cc2)CC1 [Example 62, 1,1,1,3,3,3-Hexafluoropropan-2-yl 1-(4-chlorobenzyl)-1,8-diazaspiro[4.5]decane-8-carboxylate] | ### (### is ≥ 75%) |  | 
4 | O=C(OC(C(F)(F)F)C(F)(F)F)N1CCC2(CCCN2Cc2ccc(C(F)(F)F)cc2N2CCCCC2)CC1 [Example 78, 1,1,1,3,3,3-Hexafluoropropan-2-yl 1-(2-(piperidin-1-yl)-4-(trifluoromethyl)benzyl)-1,8-diazaspiro[4.5]decane-8-carboxylate] |  | # (# is < 25%) | # (# is < 25%)
5 | CS(=O)(=O)C1CCN(c2cc(C(F)(F)F)ccc2CN2CCCC23CCN(C(=O)OC(C(F)(F)F)C(F)(F)F)CC3)C1 (stereo not shown) [Example 193, 1,1,1,3,3,3-Hexafluoropropan-2-yl 1-(2-(3-(methylsulfonyl)pyrrolidin-1-yl)-4-(trifluoromethyl)benzyl)-1,8-diazaspiro[4.5]decane-8-carboxylate] |  | # (# is < 25%) | # (# is < 25%)
6 | O=C(OC(C(F)(F)F)C(F)(F)F)N1CCC2(CCN(Cc3ccc(C(F)(F)F)cc3N3CCCC3)C2)CC1 [Example 72, 1,1,1,3,3,3-Hexafluoropropan-2-yl 2-(2-(pyrrolidin-1-yl)-4-(trifluoromethyl)benzyl)-2,8-diazaspiro[4.5]decane-8-carboxylate] |  | # (# is < 25%) | # (# is < 25%)
7 | CS(=O)(=O)N1CCN(c2cc(CN3CCCC34CCN(C(=O)OC(C(F)(F)F)C(F)(F)F)CC4)cc(C(F)(F)F)c2)CC1 [Example 43, 1,1,1,3,3,3-Hexafluoropropan-2-yl 1-(3-(4-(methylsulfonyl)piperazin-1-yl)-5-(trifluoromethyl)benzyl)-1,8-diazaspiro[4.5]decane-8-carboxylate] |  | # (# is < 25%) | # (# is < 25%)
8 | O=C(OC(C(F)(F)F)C(F)(F)F)N1CCC2(CCCN2Cc2ccc(C(F)(F)F)cc2N2CCC(F)(F)CC2)CC1 [Example 90, 1,1,1,3,3,3-Hexafluoropropan-2-yl 1-(2-(4,4-difluoropiperidin-1-yl)-4-(trifluoromethyl)benzyl)-1,8-diazaspiro[4.5]decane-8-carboxylate] |  | # (# is < 25%) | # (# is < 25%)
9 | O=C(OC(C(F)(F)F)C(F)(F)F)N1CCC2(CCCN2Cc2ccc(C(F)(F)F)cc2N2CC3CCC(C2)O3)CC1 [Example 73, 1,1,1,3,3,3-Hexafluoropropan-2-yl 1-(2-(8-oxa-3-azabicyclo[3.2.1]octan-3-yl)-4-(trifluoromethyl)benzyl)-1,8-diazaspiro[4.5]decane-8-carboxylate] |  | # (# is < 25%) | # (# is < 25%)
10 | CCN1CCN(c2cc(C(F)(F)F)ccc2CN2CCCC23CCN(C(=O)OC(C(F)(F)F)C(F)(F)F)CC3)CC1 [Example 87, 1,1,1,3,3,3-Hexafluoropropan-2-yl 1-(2-(4-ethylpiperazin-1-yl)-4-(trifluoromethyl)benzyl)-1,8-diazaspiro[4.5]decane-8-carboxylate] |  | # (# is < 25%) | # (# is < 25%)
11 | O=C(OC(C(F)(F)F)C(F)(F)F)N1CCC2(CCCN2Cc2ccc3c(c2)COC3)CC1 [Example 151, 1,1,1,3,3,3-Hexafluoropropan-2-yl 1-((1,3-dihydroisobenzofuran-5-yl)methyl)-1,8-diazaspiro[4.5]decane-8-carboxylate] | ### (### is ≥ 75%) |  | 
12 | CC1(C(=O)O)CCCN(c2cc(C(F)(F)F)ccc2CN2CCC3(CCN(C(=O)OC(C(F)(F)F)C(F)(F)F)CC3)C2)C1 (stereo not shown) [Example 216] |  | # (# is < 25%) | # (# is < 25%)
13 | O=C(O)C1CCN(c2cc(Cl)cc(CN3CCCC34CCN(C(=O)OC(C(F)(F)F)C(F)(F)F)CC4)c2)CC1 [Example 122, 1-(3-Chloro-5-((8-(((1,1,1,3,3,3-hexafluoropropan-2-yl)oxy)carbonyl)-1,8-diazaspiro[4.5]decan-1-yl)methyl)phenyl)piperidine-4-carboxylic acid] | ### (### is ≥ 75%) |  | 
14 | O=C(OC(C(F)(F)F)C(F)(F)F)N1CCC2(CCCN2Cc2ccc(C(F)(F)F)cc2N2CCN(CCF)CC2)CC1 [Example 20, 1,1,1,3,3,3-Hexafluoropropan-2-yl 1-(2-(4-(2-fluoroethyl)piperazin-1-yl)-4-(trifluoromethyl)benzyl)-1,8-diazaspiro[4.5]decane-8-carboxylate] |  | # (# is < 25%) | # (# is < 25%)
15 | O=C(O)[C@@H]1CCCN(c2cc(C(F)(F)F)ccc2CN2CCC3(CCN(C(=O)OC(C(F)(F)F)C(F)(F)F)CC3)C2)C1 [Example 211] |  | # (# is < 25%) | # (# is < 25%)
16 | O=C(OC(C(F)(F)F)C(F)(F)F)N1CCC2(CCN(Cc3ccc(C(F)(F)F)cc3N3CC4COCC4C3)C2)CC1 (stereo not shown) [Example 26, 1,1,1,3,3,3-Hexafluoropropan-2-yl 2-(2-(tetrahydro-1H-furo[3,4-c]pyrrol-5(3H)-yl)-4-(trifluoromethyl)benzyl)-2,8-diazaspiro[4.5]decane-8-carboxylate] |  | # (# is < 25%) | # (# is < 25%)
17 | O=C(OC(C(F)(F)F)C(F)(F)F)N1CCC2(CCCN2Cc2ccc(C(F)(F)F)cc2N2CCCC2)CC1 [Example 66, 1,1,1,3,3,3-Hexafluoropropan-2-yl 1-(2-(pyrrolidin-1-yl)-4-(trifluoromethyl)benzyl)-1,8-diazaspiro[4.5]decane-8-carboxylate] |  | # (# is < 25%) | # (# is < 25%)
18 | O=C(OC(C(F)(F)F)C(F)(F)F)N1CCC2(CCN(Cc3ccc(Cl)cc3N3CCCC3)C2)CC1 [Example 17, 1,1,1,3,3,3-Hexafluoropropan-2-yl 2-(4-chloro-2-(pyrrolidin-1-yl)benzyl)-2,8-diazaspiro[4.5]decane-8-carboxylate] |  | # (# is < 25%) | # (# is < 25%)
19 | O=C(O)C1CCN(Cc2cc(C(F)(F)F)ccc2CN2CCCC23CCN(C(=O)OC(C(F)(F)F)C(F)(F)F)CC3)C1 (stereo not shown) [Example 262] |  | # (# is < 25%) | # (# is < 25%)
20 | O=C(OC(C(F)(F)F)C(F)(F)F)N1CCC2(CCCN2Cc2cccc(N3CCCCC3)c2Cl)CC1 [Example 80, 1,1,1,3,3,3-Hexafluoropropan-2-yl 1-(2-chloro-3-(piperidin-1-yl)benzyl)-1,8-diazaspiro[4.5]decane-8-carboxylate] | ### (### is ≥ 75%) |  | 
